Data published in publication PMC9124820, “In vitro evaluation of fenfluramine and norfenfluramine as victims of drug interactions” (Pharmacology Research & Perspectives, 2022).

How the values were obtained:
Format in all cases: in vitro ADME
MATE1 = target: T1, MATE1 (Homo sapiens, UniProt Q96FL8); test: Transporter substrate determination, uptake in HEK293-MATE1 cells; conditions: for Maximum Ratio (uptake in transporter‐expressing cells to empty‐vector control cells): HEK293‐MATE1, 0.1, 1, 10 µM, threshold ≥2‐fold; for substrate of the transporter: MATE1
T1 construct: host or cells: HEK293
T1 sequence (Q96FL8 1-570): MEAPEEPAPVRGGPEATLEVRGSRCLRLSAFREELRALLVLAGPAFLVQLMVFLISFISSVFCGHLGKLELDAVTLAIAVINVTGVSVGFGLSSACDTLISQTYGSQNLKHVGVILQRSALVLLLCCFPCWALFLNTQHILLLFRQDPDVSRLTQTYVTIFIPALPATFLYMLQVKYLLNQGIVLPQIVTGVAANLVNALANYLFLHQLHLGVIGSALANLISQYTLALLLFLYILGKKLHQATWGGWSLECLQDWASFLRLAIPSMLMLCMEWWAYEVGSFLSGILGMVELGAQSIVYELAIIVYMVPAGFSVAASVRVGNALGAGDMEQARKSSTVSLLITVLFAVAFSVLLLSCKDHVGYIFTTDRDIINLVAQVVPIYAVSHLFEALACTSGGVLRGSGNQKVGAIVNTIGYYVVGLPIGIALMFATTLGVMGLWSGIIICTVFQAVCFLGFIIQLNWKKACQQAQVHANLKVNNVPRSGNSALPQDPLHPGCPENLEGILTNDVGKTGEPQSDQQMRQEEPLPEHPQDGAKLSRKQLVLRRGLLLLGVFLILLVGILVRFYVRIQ
Method: (§1) LC‐MS/MS analyses to assess metabolic stability and identify the transporter substrate were performed using an API 4000 QTRAP mass spectrometer (SCIEX, Framingham, MA) with electrospray ionization in positive mode. Chromatography was performed using an Atlantis dC18 analytical column (100 × 2.1 mm, 5 µm; Waters Corporation, Milford, MA). Mobile phases were 0.2% v/v formic acid in water and 0.2% v/v formic acid in acetonitrile. For metabolic stability experiments, FFA and metabolites were eluted at a flow rate of 0.6 mL/min, with a linear gradient of 20%−80% acetonitrile from 0.30−2.0 min. For transporter substrate experiments, the gradient was slightly modified to achieve suitable chromatography. The mass transitions monitored were 232.0 > 159.0 for FFA and 348.0 > 330.0 for 1ʹ‐OH‐midazolam‐d4 internal standard.
(§2) FFA and nFFA were evaluated as substrates of the transporters breast cancer resistance protein (BCRP), organic anion transporter (OAT)1, OAT3, organic cation transporter (OCT)2, MATE1, MATE2‐K, and P‐glycoprotein multidrug transporter (P‐gp; also known as MDR1 and ABCB1), according to published methods.[25], [26], [27], [28], [29] Madin‐Darby canine kidney (MDCKII)‐BCRP cells (Netherlands Cancer Institute, Amsterdam, Netherlands) or human embryonic kidney (HEK)293 cells transfected with other transporters (Sekisui Medical Co., Ltd., Tokyo, Japan) were used. Transporter‐transfected and control cells were incubated with FFA or nFFA (0.1, 1, or 10 μM), and the amount of FFA and nFFA accumulated in the cells was measured by LC‐MS/MS as described above. The accumulation of positive control substrates in the presence and absence of an inhibitor served as a positive control for transporter function. […] BCRP substrate determination was made by bi‐directional permeability across MDCKII‐BCRP and control cells cultured on 24‐well transwell plates. Incubation medium containing probe substrate was added. Ten minutes later, transepithelial electrical resistance (TEER) was recorded and cells were preincubated at 37 ± 2°C for 30−60 min before FFA or nFFA or positive control substrate with the solvent control or positive control inhibitor was added to the donor (apical) chamber. […] Samples containing FFA, nFFA, or probe substrate were mixed with internal standard and analyzed by LC‐MS/MS. […] An aliquot was added to 96‐well plate containing scintillation fluid that was analyzed by a MicroBeta^2 scintillation counter (Perkin Elmer, Waltham, MA). Protein concentration was determined by a bicinchoninic acid (BCA) protein assay according to the manufacturer’s protocol (Thermo Fisher Scientific, Waltham, MA). Non‐radiolabeled compounds were resuspended in a 50:50 v/v methanol:water solution containing internal standard and were analyzed by LC‐MS/MS. […]

MATE2‐K = target: T2, MATE2‐K (Homo sapiens, UniProt Q86VL8); test: Transporter substrate determination, uptake in HEK293-MATE2K cells; conditions: for Maximum Ratio (uptake in transporter‐expressing cells to empty‐vector control cells): HEK293‐MATE2K, 0.1, 1, 10 µM, threshold ≥2‐fold; for substrate of the transporter: MATE2‐K
T2 construct: host or cells: HEK293
Method: as §1, §2

OAT3 = target: T3, OAT3 (Homo sapiens, UniProt Q8TCC7); test: Transporter substrate determination, uptake in HEK293-OAT3 cells; conditions: for Maximum Ratio (uptake in transporter‐expressing cells to empty‐vector control cells): HEK293‐OAT3, 0.1, 1, 10 µM, threshold ≥2‐fold; for substrate of the transporter: OAT3
T3 construct: host or cells: HEK293
T3 sequence (Q8TCC7 1-542): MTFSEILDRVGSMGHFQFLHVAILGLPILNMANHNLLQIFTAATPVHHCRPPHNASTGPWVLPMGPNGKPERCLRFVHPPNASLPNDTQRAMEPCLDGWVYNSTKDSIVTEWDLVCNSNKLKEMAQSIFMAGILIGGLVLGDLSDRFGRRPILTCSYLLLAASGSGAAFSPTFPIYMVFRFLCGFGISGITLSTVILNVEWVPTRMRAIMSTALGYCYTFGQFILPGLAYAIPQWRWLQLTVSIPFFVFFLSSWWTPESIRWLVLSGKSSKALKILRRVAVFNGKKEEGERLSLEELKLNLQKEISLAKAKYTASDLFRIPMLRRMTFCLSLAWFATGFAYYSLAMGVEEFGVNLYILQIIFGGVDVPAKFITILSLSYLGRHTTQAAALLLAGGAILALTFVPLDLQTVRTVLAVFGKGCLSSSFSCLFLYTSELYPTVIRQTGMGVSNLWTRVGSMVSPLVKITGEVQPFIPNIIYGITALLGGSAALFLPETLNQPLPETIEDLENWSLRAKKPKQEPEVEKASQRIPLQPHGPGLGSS
Method: as §1, §2

T2 sequence (Q86VL8 1-566 isoform Q86VL8-3): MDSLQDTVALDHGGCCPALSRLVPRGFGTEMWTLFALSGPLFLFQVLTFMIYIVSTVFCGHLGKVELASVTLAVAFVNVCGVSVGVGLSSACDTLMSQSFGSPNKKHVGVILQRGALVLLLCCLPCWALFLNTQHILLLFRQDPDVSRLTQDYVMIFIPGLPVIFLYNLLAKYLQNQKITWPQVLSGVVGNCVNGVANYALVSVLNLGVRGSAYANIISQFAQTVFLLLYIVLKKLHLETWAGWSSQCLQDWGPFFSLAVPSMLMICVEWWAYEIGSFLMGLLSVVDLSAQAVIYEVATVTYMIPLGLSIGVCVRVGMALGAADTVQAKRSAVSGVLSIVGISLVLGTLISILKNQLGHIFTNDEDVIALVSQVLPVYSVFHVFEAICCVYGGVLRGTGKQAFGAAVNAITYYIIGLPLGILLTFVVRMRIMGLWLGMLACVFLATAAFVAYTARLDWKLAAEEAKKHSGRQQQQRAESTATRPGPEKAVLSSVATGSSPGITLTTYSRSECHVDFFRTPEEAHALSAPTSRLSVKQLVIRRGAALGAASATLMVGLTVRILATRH

Structure (SMILES) | Maximum Ratio (uptake in transporter‐expressing cells to empty‐vector control cells) (MATE1) | substrate of the transporter (MATE1) | Maximum Ratio (uptake in transporter‐expressing cells to empty‐vector control cells) (MATE2‐K) | substrate of the transporter (MATE2‐K) | Maximum Ratio (uptake in transporter‐expressing cells to empty‐vector control cells) (OAT3) | substrate of the transporter (OAT3)
CC(N)Cc1cccc(C(F)(F)F)c1.Cl (stereo not drawn) [nFFA, 1‐(3‐(trifluoromethyl)phenyl)propan‐2‐amine hydrochloride] | 1.00 | not substrates | 1.50 | not substrates | 1.74 | not substrates
CCNC(C)Cc1cccc(C(F)(F)F)c1 (racemic) [FFA, (RS)‐ethyl (α‐methyl‐3‐trifluoromethylphenethyl)amine] | 1.10 | not substrates | 1.40 | not substrates | 1.15 | not substrates
